Reference: patent publication US6797700B2, “Antithrombotic azacycloalkylalkanoyl peptides and pseudopeptides” (Aventis Pharmaceuticals, Inc., priority 1993, dated 2004)
Like-named read-outs stand apart in the source and are kept apart here.

Columns and labels:
[1] = tested on: ADP-induced platelet aggregation in canine platelet rich plasma; assay: Inhibition of ADP-Induced ex-vivo Platelet Aggregation after oral administration; assay type: in vivo, mongrel dogs; settings: dog, dose 5 mg/kg; for inhibition at 5 mg/kg: Canis lupus familiaris, Platelet
Method: Inhibition of ADP-Induced ex-vivo Platelet Aggregation
Control blood samples are obtained 5-10 minutes prior to administration of the test compound in mongrel dogs weighing from 10 to 20 kg. The compound is administered intragasticly, via aqueous gavage, or orally, via gelatin capsule. Blood samples (5 ml) are then obtained at 30 minute intervals for 3 hours, and at 6, 12, and 24 hours after dosing. Each blood sample is obtained by venipuncture of the cephalic vein and is collected directly into a plastic syringe containing one part 3.8% trisodium citrate to nine parts blood.
Ex vivo Canine Platelet Aggregation
The blood samples are centrifuged at 1000 rpm for 10 minutes to obtain platelet rich plasma (PRP). After removal of the PRP, the sample is centrifuged for an additional 10 minutes at 2000 rpm to obtain platelet poor plasma (PPP). Platelet count in the PRP is determined by using a Coulter Counter (Coulter Electronics, Hialeah, Fla.). If the concentration of platelets in the PRP is greater than 300,000 platelets/μl, then the PRP is diluted with PPP to adjust the platelet count to 300,000 platelets/μl. Aliquots of PRP (250 μl) are then placed in siliconized glass cuvettes (7.25×55 mm, Bio/Data Corp, Horsham, Pa.). Epinephrine (final concentration of 1 μM) is then added to the PRP, which is incubated for one minute at 37° C. A stimulator of platelet aggregation, ADP at a final concentration of 10 μM, is then added to the PRP. Platelet aggregation is monitored spectrophotometrically utilizing a light transmission aggregometer (Bio/Data Platelet Aggregation Profiler, Model PAP-4, Bio/Data Corp, Horsham, Pa.). For compound to be tested, the rate of change (slope) of light transmittance and the maximum light transmittance (maximum aggregation) is recorded in duplicate. Platelet aggregation data are reported as the percent decrease (mean±SEM) in slope or maximum aggregation as compared to data obtained from control PRP, which is prepared from blood samples obtained prior to administration of the test compound.

[2] = tested on: fixed activated platelets; assay: Platelet Aggregation Assay (fixed-activated platelets, fibrinogen-mediated aggregation); assay type: cell-based; settings: aggregation initiated by human fibrinogen 250 μg/ml, read-out: Inhibition of Fixed Platelet Aggregation (IC50 μM)
Method: Preparation of Fixed-Activated Platelets
Platelets are isolated from human platelet concentrates using the gel-filtration technique as described by Marguerie, G. A., et al., J. Biol. Chem. 254, 5357-5363 (1979) and Ruggeri, Z. M., et al., J. Clin. Invest. 72, 1-12 (1983). The platelets are suspended at a concentration of 2×10^8 cells/ml in a modified calcium-free Tyrode's buffer containing 127 mM sodium chloride, 2 mM magnesium chloride, 0.42 mM Na2HPO4, 11.9 mM NaHCO3, 2.9 mM KCl, 5.5 mM glucose, 10 mM HEPES, at a pH of 7.35 and 0.35% human serum albumin (HSA). These washed platelets are activated by addition of human a-thrombin at a final concentration of 2 units/ml, followed by thrombin inhibitor I-2581 at a final concentration of 40 μM. To the activated platelets is added paraformaldehyde to a final concentration of 0.50% and this incubated at room temperature for 30 minutes. The fixed activated platelets are then collected by centrifugation at 650×g for 15 minutes. The platelet pellets are washed four times with the above Tyrode's-0.35% HSA buffer and resuspended to 2×10^8 cells/ml in the same buffer.
Platelet Aggregation Assay
The fixed activated platelets are incubated with a selected dose of the compound to be tested for platelet aggregation inhibition for one minute and aggregation initiated by addition of human fibrinogen to a final concentration of 250 μg/ml. A platelet aggregation profiler Model PAP-4 is used to record the platelet aggregation. The extent of inhibition of aggregation is expressed as the percentage of the rate of aggregation observed in the absence of inhibitor.

[3] = fixed activated human platelets
[4] = 1 h after dosing, read-out: % Inhibition of ex-vivo Platelet Aggregation After Oral Administration, 1 h
[5] = 3 h after dosing, read-out: % Inhibition of ex-vivo Platelet Aggregation After Oral Administration, 3 h
[6] = 6 h after dosing, read-out: % Inhibition of ex-vivo Platelet Aggregation After Oral Administration, 6 h

Structure (SMILES): O=C(O)C[C@H](NC(=O)CNC(=O)CCCC1CCNCC1)C(=O)N[C@@H](Cc1c[nH]c2ccccc12)C(=O)O [Compound of EPA '481, 4-4(piperidyl)butanoyl glycyl aspartyl tryptophan, reference compound]
- % Inhibition of ex-vivo Platelet Aggregation After Oral Administration, 1 h ([1]; 1 h after dosing): 53%
- % Inhibition of ex-vivo Platelet Aggregation After Oral Administration, 3 h ([1]; 3 h after dosing): <20%
- IC50 [2, 3]: 0.047 µM

Structure (SMILES): CCN(CC(=O)NC(CC(=O)O)C(=O)NC(CC1CCCCC1)C(=O)O)C(=O)CCCC1CCNCC1 (centres unmarked) [Example 1, N-[N-[N-(4-(piperidin-4-yl)butanoyl)-N-ethylglycyl]aspartyl]-b-cyclogexylalanine]
- inhibition at 5 mg/kg [1, 4]: 100%
- inhibition at 5 mg/kg [1, 5]: 100%
- inhibition at 5 mg/kg [1, 6]: 100%
- inhibition at 5 mg/kg ([1]; 12 h after dosing, read-out: % Inhibition of ex-vivo Platelet Aggregation After Oral Administration, 12 h): 88%
- inhibition at 5 mg/kg ([1]; 24 h after dosing, read-out: % Inhibition of ex-vivo Platelet Aggregation After Oral Administration, 24 h): 42%
- IC50 ([2]; Homo sapiens, Platelet): 0.026 µM

Structure (SMILES): CCN(CC(=O)NC(CC(=O)O)C(=O)NC(Cc1ccc2ccccc2c1)C(=O)O)C(=O)CCCC1CCNCC1 [Example 8, N-[N-[N-(4(piperidin-4-yl)butanoyl)-N-ethylglycyl]aspartyl]-L-b-naphth-2-yl alanine]
- inhibition at 5 mg/kg [1, 4]: 30%
- inhibition at 5 mg/kg [1, 5]: < 20%

Structure (SMILES): CCN(CC(=O)NC(CC(=O)O)C(=O)NC(C(=O)O)C(C)C)C(=O)CCC1CCNCC1 (centres unmarked) [Example 9, N-[N-[N-(3-(piperidin-4-yl)propanoyol)-N-ethylglycyl]aspartyl]valine]
- IC50 ([2]; Homo sapiens, Platelet): 0.77 µM

Structure (SMILES): CCN(CC(=O)NC(CC(=O)O)C(=O)NC(C(=O)O)C1CCCCC1)C(=O)CCCC1CCNCC1 [Example 13, N-[N-[N-(4-(piperidin-4-yl)butanoyl)-N-ethylglycyl]aspartyl]-L-a-cyclohexyl glycine]
- inhibition at 5 mg/kg [1, 4]: 100%
- inhibition at 5 mg/kg [1, 5]: 100%
- inhibition at 5 mg/kg [1, 6]: 25%

Structure (SMILES): CCN(CC(=O)NC(CC(=O)O)C(=O)NC(CC1CCC2CCCCC2C1)C(=O)O)C(=O)CCCC1CCNCC1 [Example 17, N-[N-[N-(4-(piperidin-4-yl)butanoyl)-N-ethylglycyl]aspartyl]-L-b-cis-decahydronaphth-2-ylalanine]
- IC50 ([2]; Homo sapiens, Platelet): 0.096 µM

Structure (SMILES): CCN(CC(=O)NC(CC(=O)O)C(=O)OCCCC12CC3CC(CC(C3)C1)C2)C(=O)CCCC1CCNCC1 (centres unmarked) [Example 18, 3-Adamant-1-ylpropyl-N-[N-(4-(piperidin-4-yl)butanoyl)-N-ethylglycyl]aspartate]
- IC50 ([2]; Homo sapiens, Platelet): 0.104 µM

Structure (SMILES): CCN(CC(=O)NC(CC(=O)O)C(=O)N[C@H](CC1CCCCC1)C(=O)O)C(=O)CCCC1CCNCC1 (stereo partly drawn) [Example 20, N-[N-[N-(4-(piperidin-4-yl)butanoyl)-N-ethylglycyl]aspartyl]-b-cyclohexyl-D-alanine]
- IC50 ([2]; Homo sapiens, Platelet): 1.37 µM

Structure (SMILES): CCN(CC(=O)NC(CC(=O)O)C(=O)NC(CC1CCCC2CCCCC21)C(=O)O)C(=O)CCCC1CCNCC1 (centres unmarked) [Example 21, N-[N-[N-(4-(piperidin-4-yl)butanoyl)-N-ethylglycyl]aspartyl]-b-decahydronaphth-1-ylalanine]
- IC50 [2, 3]: 0.055 µM

Structure (SMILES): CCNC(=O)C(CC1CCCCC1)NC(=O)C(CC(=O)O)NC(=O)CN(CC)C(=O)CCCC1CCNCC1 (centres unmarked) [Example 22, N-[N-[N-(4-(piperidin-4-yl)butanoyl)-N-ethylglycyl]aspartyl]-b-cyclohexylalanine ethyl amide]
- IC50 ([2]; Homo sapiens, Platelet): 0.09 µM

Structure (SMILES): CCN(CC(=O)NC(CC(=O)O)C(=O)NC(CC1CCCCCCC1)C(=O)O)C(=O)CCCC1CCNCC1 (centres unmarked) [Example 23, N-[N-[N-(4-(piperidin-4-yl)butanoyl)-N-ethylglycyl]aspartyl]-b-cyclooctylalanine]
- IC50 ([2]; Homo sapiens, Platelet): 0.078 µM

Structure (SMILES): CCN(CC(=O)NC(CC(=O)O)C(=O)NC(CO)CC1CCCCC1)C(=O)CCCC1CCNCC1 (centres unmarked) [Example 24, N-[N-[N-(4-(piperidin-4-yl)butanoyl)-N-ethylglycyl]aspartyl]-a-cyclohexylmethylethanolamine]
- IC50 ([2]; Homo sapiens, Platelet): 0.129 µM

Structure (SMILES): CCN(CC(=O)NC(CC(=O)O)C(=O)NC(CCC1CCCCC1)C(N)=O)C(=O)CCCC1CCNCC1 (centres unmarked) [Example 25, N-[N-[N-(4-(piperidin-4-yl)butanoyl)-N-ethylglycyl]aspartyl]-b-cyclohexylmethylalanine amide]
- IC50 ([2]; Homo sapiens, Platelet): 0.046 µM

Structure (SMILES): CCN(CC(=O)NC(CC(=O)O)C(=O)NC(CC12CC3CC(CC(C3)C1)C2)C(=O)O)C(=O)CCCC1CCNCC1 (centres unmarked) [Example 26, N-[N-[N-(4-(piperidin-4-yl)butanoyl)-N-ethylglycyl]aspartyl]-b-adamant-1-ylalanine]
- IC50 ([2]; Homo sapiens, Platelet): 0.029 µM

Structure (SMILES): CCN(CC(=O)NC(CC(=O)O)C(=O)NC(Cc1cccc2c1CCCC2)C(=O)O)C(=O)CCCC1CCNCC1 (centres unmarked) [Example 27, N-[N-[N-(4-(piperidin-4-yl)butanoyl)-N-ethylglycyl]aspartyl]-b-(1,2,3,4)-tetrahydronaphth-5-ylalanine]
- IC50 ([2]; Homo sapiens, Platelet): 0.119 µM

Structure (SMILES): CCN(CC(=O)NC(CC(=O)O)C(=O)NC(CC1CCC(C2CCCCC2)CC1)C(=O)O)C(=O)CCCC1CCNCC1 (centres unmarked) [Example 28, N-[N-[N-(4-(piperidin-4-yl)butanoyl)-N-ethylglycyl]aspartyl]-b-(4-cyclohexyl)cyclohexylalanine]
- IC50 ([2]; Homo sapiens, Platelet): 0.048 µM

Structure (SMILES): CCN(CC(=O)NC(CC(=O)O)C(=O)NC(CC1CCCCCC1)C(=O)O)C(=O)CCCC1CCNCC1 (centres unmarked) [Example 29, N-[N-[N-(4-(piperidin-4-yl)butanoyl)-N-ethylglycyl]aspartyl]-b-cycloheptylalanine]
- IC50 ([2]; Homo sapiens, Platelet): 0.032 µM

Structure (SMILES): CCN(CC(=O)NC(CC(=O)O)C(=O)NC(CC1CCCCCCC1)C(N)=O)C(=O)CCCC1CCNCC1 (centres unmarked) [Example 30, N-[N-[N-(4-(piperidin-4-yl)butanoyl)-N-ethylglycyl]aspartyl]-b-cyclooctylalanine amide]
- IC50 ([2]; Homo sapiens, Platelet): 0.07 µM

Structure (SMILES): CCN(CC(=O)NC(CC(=O)O)C(=O)NC(CCCC1CCCCC1)C(=O)O)C(=O)CCCC1CCNCC1 (centres unmarked) [Example 31, N-[N-[N-(4-(piperidin-4-yl)butanoyl)-N-ethylglycyl]aspartyl]-a-cyclohexylpropylglycine]
- IC50 ([2]; Homo sapiens, Platelet): 0.053 µM

Structure (SMILES): CCN(CC(=O)NC(CC(=O)O)C(=O)NC(CCC1CCCCCCC1)C(=O)O)C(=O)CCCC1CCNCC1 (centres unmarked) [Example 32, N-[N-[N-(4-(piperidin-4-yl)butanoyl)-N-ethylglycyl]aspartyl]-b-cyclooctylmethylalanine]
- IC50 ([2]; Homo sapiens, Platelet): 0.052 µM

Structure (SMILES): CCN(CC(=O)NC(CC(=O)O)C(=O)NC(CC1CCCC1)C(=O)O)C(=O)CCCC1CCNCC1 (centres unmarked) [Example 33, N-[N-[N-(4-(piperidin-4-yl)butanoyl)-N-ethylglycyl]aspartyl]-b-cyclopentylalanine]
- IC50 ([2]; Homo sapiens, Platelet): 0.047 µM

Structure (SMILES): CCOC(=O)C(CCC1CCCCC1)NC(=O)C(CC(=O)O)NC(=O)CN(CC)C(=O)CCCC1CCNCC1 (centres unmarked) [Example 34, N-[N-[N-(4-(piperidin-4-yl)butanoyl)-N-ethylglycyl]aspartyl]-b-cyclohexylmethylalanine ethyl ester]
- IC50 ([2]; Homo sapiens, Platelet): 0.074 µM
